Like-named read-outs stand apart in the source and are kept apart here.
Columns and labels:
[1] = logP determination by reversed-phase HPLC (EEC Directive 79/831 Annex V.A8), acidic range; assay type: physicochemical
Experimental: The logP values given in the table were determined in accordance with EEC Directive 79/831 Annex V.A8 by HPLC (High Performance Liquid Chromatography) using a reversed-phase column (C 18). Temperature: 43° C.
(a) Mobile phases for the determination in the acidic range: 0.1% phosphoric acid, acetonitrile; linear gradient from 10% acetonitrile to 90% acetonitrile—the corresponding measurement results in Table 1 are marked a).
Calibration was carried out using unbranched alkan-2-ones (having 3 to 16 carbon atoms) with known logP values (determination of the logP values by the retention times using linear interpolation between two successive alkanones).

weeds [2] = experiment: Post-emergence test (herbicidal action); assay type: in vivo; conditions: test plants of 5-15 cm sprayed, rated after three weeks
Experimental: Post-Emergence Test (Herbicidal Action)
(§1) To produce a suitable preparation of active compound, 1 part by weight of active compound is mixed with the stated amount of solvent, the stated amount of emulsifier is added and the concentrate is diluted with water to the desired concentration.
Test plants of a height of 5-15 cm are sprayed with the preparation of active compound such that the particular amounts of active compound desired are applied per unit area. The concentration of the spray liquor is chosen such that the particular amounts of active compound desired are applied in 1000 l of water/ha.
(§2) After three weeks, the degree of damage to the plants is rated in % damage in comparison to the development of the untreated control.

weeds [3] = experiment: Pre-emergence test (herbicidal action); assay type: in vivo; conditions: soil sprayed 24 hours after sowing, rated after three weeks
Experimental: Pre-Emergence Test (Herbicidal Action)
as §1
Seeds of the test plants are sown in normal soil. After 24 hours, the soil is sprayed with the preparation of active compound such that the particular amount of active compound desired is applied per unit area. The concentration of active compound in the spray liquor is chosen such that the particular amount of active compound desired is applied in 1000 litres of water per hectare.
as §2

[4] = pH 2, HPLC, C18 reversed-phase column, read-out: logP (pH 2)

| Molecule | logP a) (Table 1, Physical data) [1] | also measured |
| --- | --- | --- |
| CC(C)(C)C(=O)Nc1c(C(N)=O)cnn1-c1ncc(C(F)(F)F)cc1Cl [VI-2] | – | logP a) (Table 3, Physical data) [1]: logP = 2.20^a) |
| NC(=O)c1cnn(-c2ncc(C(F)(F)F)cc2Cl)c1N [II-1, 5-amino-1-(3-chloro-5-trifluoromethylpyridin-2-yl)pyrazole-4-carboxamide] | – | melting point: 196 °C; chromatographic logP [1, 4]: 1.46 |
| Cn1c(C2CC2)nc2c(cnn2-c2ncc(C(F)(F)F)cc2Cl)c1=O [Example 109, 1-(3-chloro-5-trifluoromethylpyridin-2-yl)-5-methyl-6-cyclopropyl-1,5-dihydropyrazolo[3,4-d]pyrimidin-4-one] | – | herbicidal action against weeds (degree of damage) (weeds [2]): strong action against weeds; chromatographic logP [1, 4]: 2.61; chromatographic logP ([1]; reversed-phase HPLC column (C18); acidic range: 0.1% phosphoric acid, acetonitrile gradient; C18; 43° C.; read-out: logP a) (Table 1, Physical data)): 2.61; herbicidal action against weeds (degree of damage) (weeds [3]): strong action against weeds |
| Cn1cnc2c(cnn2-c2ncc(C(F)(F)F)cc2Cl)c1=O [Example 2, 1-(3-chloro-5-trifluoromethylpyridin-2-yl)-5-methyl-1,5-dihydropyrazolo[3,4-d]pyrimidin-4-one] | – | melting point: 253 °C; chromatographic logP [1, 4]: 1.76 |
| O=c1[nH]cnc2c1cnn2-c1ncc(C(F)(F)F)cc1Cl [Example 1, 1-(3-chloro-5-trifluoromethylpyridin-2-yl)-1,5-dihydropyrazolo[3,4-d]pyrimidin-4-one] | – | melting point: 331 °C; chromatographic logP [1, 4]: 1.54 |
| Cc1nc2c(cnn2-c2nn(C)c(OC(F)F)c2Cl)c(=O)n1C [Example 99] | (I) logP = 1.68^a)m.p. = 199 °C | – |
| Cc1nc2c(cnn2-c2ncc(C(F)(F)F)cc2Cl)c(=O)n1C [Example 8] | (I) logP = 1.97^a) | herbicidal action against weeds (degree of damage) (weeds [3]): strong action against weeds |
| CCCc1nc2c(cnn2-c2ncc(C(F)(F)F)cc2Cl)c(=O)[nH]1 [Example 23] | (I) logP = 2.28^a) | – |
| Cc1nc2c(cnn2-c2c(Cl)cc(C(F)(F)F)cc2Cl)c(=O)[nH]1 [Example 3, 1-(2,6-dichloro-4-trifluoromethylphenyl)-6-methyl-1,5-dihydropyrazolo[3,4-d]pyrimidin-4-one] | – | melting point: 300 °C; chromatographic logP [1, 4]: 2.25 |
| Cn1c(C2CCC2)nc2c(cnn2-c2ncc(C(F)(F)F)cc2Cl)c1=O [Example 64] | (I) logP = 3.03^a) | herbicidal action against weeds (degree of damage) (weeds [2]): strong action against weeds; herbicidal action against weeds (degree of damage) (weeds [3]): strong action against weeds |
| Cn1nc(-n2ncc3c(=O)n(C)c(C4CC4)nc32)cc1OC(F)F [Example 102] | (I) logP = 1.90^a) | – |
| Cc1nc2c(cnn2-c2nn(C)c(OC(F)F)c2Cl)c(=O)[nH]1 [Example 98] | (I) logP = 1.40^a)m.p. = 254 °C | – |
| CC(C)c1nc2c(cnn2-c2ccc(C(F)(F)F)cc2Cl)c(=O)n1C [Example 84] | (I) logP = 3.52^a) | – |
| FC(F)Oc1nc(C2CC2)nc2c1cnn2-c1ncc(C(F)(F)F)cc1Cl [Example 57] | (Ia) logP = 4.24^a) | herbicidal action against weeds (degree of damage) (weeds [2]): strong action against weeds; herbicidal action against weeds (degree of damage) (weeds [3]): strong action against weeds |
| COc1nc(C(F)(F)F)nc2c1cnn2-c1ncc(C(F)(F)F)cc1Cl [Example 39] | (Ia) logP = 3.99^a) | herbicidal action against weeds (degree of damage) (weeds [2]): strong action against weeds |
| CC(C)Oc1nc(C2CC2)nc2c1cnn2-c1ncc(C(F)(F)F)cc1Cl [Example 52] | (Ia) logP = 4.86^a) | – |
| CC(C)Cc1nc2c(cnn2-c2ncc(C(F)(F)F)cc2Cl)c(=O)[nH]1 [Example 25] | (I) logP = 2.52^a) | – |
| CC(C)c1nc2c(cnn2-c2ncc(C(F)(F)F)cc2Cl)c(=O)[nH]1 [Example 17] | (I) logP = 2.36^a) | – |
| CC(C)(C)c1nc2c(cnn2-c2ncc(C(F)(F)F)cc2Cl)c(=O)[nH]1 [Example 26] | (I) logP = 2.74^a) | – |
| O=c1[nH]c(C(Cl)Cl)nc2c1cnn2-c1ncc(C(F)(F)F)cc1Cl [Example 12] | (I) logP = 2.39^a) | – |
| Cn1c(C(F)(F)F)nc2c(cnn2-c2ncc(C(F)(F)F)cc2Cl)c1=O [Example 38] | (I) logP = 3.11^a) | – |
| CCOC(=O)COc1nc(C2CC2)nc2c1cnn2-c1ncc(C(F)(F)F)cc1Cl [Example 58] | (Ia) logP = 3.88^a) | – |
| O=c1[nH]c(C2CCC2)nc2c1cnn2-c1ncc(C(F)(F)F)cc1Cl [Example 63] | (I) logP = 2.46^a) | – |
| CCOC(=O)COc1nc(C(F)(F)F)nc2c1cnn2-c1ncc(C(F)(F)F)cc1Cl [Example 42] | (Ia) logP = 4.05^a) | – |

| Molecule | logP a) (Table 1, Physical data) [1] | also measured |
| --- | --- | --- |
| Cn1nc(-n2ncc3c(=O)n(C)c(C4CC4)nc32)c(Cl)c1OC(F)F [Example 107] | (I) logP = 2.21^a)m.p. = 220 °C | – |
| Cn1c(C2(F)CC2)nc2c(cnn2-c2ncc(C(F)(F)F)cc2Cl)c1=O [Example 59] | (I) logP = 2.82^a) | herbicidal action against weeds (degree of damage) (weeds [2]): strong action against weeds; herbicidal action against weeds (degree of damage) (weeds [3]): strong action against weeds |
| O=c1[nH]c(C(F)(F)F)nc2c1cnn2-c1ncc(C(F)(F)F)cc1Cl [Example 37] | (I) logP = 2.42^a) | – |
| Cn1nc(-n2ncc3c(=O)[nH]c(C4CC4)nc32)c(Cl)c1OC(F)F [Example 106] | (I) logP = 1.85^a)m.p. = 210 °C | – |
| COc1nc(C2(F)CC2)nc2c1cnn2-c1ncc(C(F)(F)F)cc1Cl [Example 60] | (Ia) logP = 3.73^a) | herbicidal action against weeds (degree of damage) (weeds [2]): strong action against weeds; herbicidal action against weeds (degree of damage) (weeds [3]): strong action against weeds |
| CC(C)(CCl)C(=O)Nc1c(C(N)=O)cnn1-c1ncc(C(F)(F)F)cc1Cl [VI-3] | – | logP a) (Table 3, Physical data) [1]: logP = 2.26^a) |
| Cn1nc(-n2ncc3c(=O)[nH]c(C4CC4)nc32)cc1OC(F)F [Example 101] | (I) logP = 1.59^a) | – |
| Cc1nc2c(cnn2-c2ncc(C(F)(F)F)cc2Cl)c(=O)[nH]1 [Example 7] | (I) logP = 1.64^a) | – |
| CCOC(=O)c1nc2c(cnn2-c2ncc(C(F)(F)F)cc2Cl)c(=O)n1C [Example 46] | (I) logP = 2.74^a) | – |
| C#CCn1c(C2CC2)nc2c(cnn2-c2ncc(C(F)(F)F)cc2Cl)c1=O [Example 56] | (I) logP = 2.95^a) | – |
| CCCc1nc2c(cnn2-c2ncc(C(F)(F)F)cc2Cl)c(=O)n1C [Example 24] | (I) logP = 2.81^a) | herbicidal action against weeds (degree of damage) (weeds [2]): strong action against weeds; herbicidal action against weeds (degree of damage) (weeds [3]): strong action against weeds |
| CCn1c(C2CC2)nc2c(cnn2-c2ncc(C(F)(F)F)cc2Cl)c1=O [Example 50] | (I) logP = 2.96^a) | – |
| CCOc1nc(C2CC2)nc2c1cnn2-c1ncc(C(F)(F)F)cc1Cl [Example 51] | (Ia) logP = 4.42^a) | – |
| O=c1[nH]c(C(F)(F)Cl)nc2c1cnn2-c1ncc(C(F)(F)F)cc1Cl [Example 43] | (I) logP = 2.53^a) | – |
| 1-(3-chloro-5-trifluoromethylpyridin-2-yl)-4-methoxy-6-cyclopropylpyrazolopyrimidin-4-one [Example 110] | (Ia) logP = 3.97^a) | herbicidal action against weeds (degree of damage) (weeds [2]): strong action against weeds; logP (pH 2) ([1]; pH 2): 3.97 |
| COc1nc(C(C)(C)C)nc2c1cnn2-c1ncc(C(F)(F)F)cc1Cl [Example 27] | (Ia) logP = 2.74^a) | herbicidal action against weeds (degree of damage) (weeds [2]): strong action against weeds; herbicidal action against weeds (degree of damage) (weeds [3]): strong action against weeds |
| CC(C)c1nc2c(cnn2-c2ncc(C(F)(F)F)cc2Cl)c(=O)n1C [Example 18] | (I) logP = 2.89^a) | herbicidal action against weeds (degree of damage) (weeds [2]): strong action against weeds; herbicidal action against weeds (degree of damage) (weeds [3]): strong action against weeds |
| NC(=O)c1cnn(-c2ncc(Cl)cc2Cl)c1N [II-2] | – | logP a) (Table 2, Physical data) [1]: logP = 1.02^a) |
| COc1nc(C2CC2)nc2c1cnn2-c1cc(OC(F)F)n(C)n1 [Example 103] | (Ia) logP = 3.02^a) | – |
| CCc1nc2c(cnn2-c2ncc(C(F)(F)F)cc2Cl)c(=O)[nH]1 [Example 13] | (I) logP = 2.39^a) | – |
| COc1nc(C(F)(F)F)nc2c1cnn2-c1ncc(Cl)cc1Cl [Example 72] | (Ia) logP = 3.76^a) | – |
| O=c1[nH]c(C(F)(F)C(F)(F)F)nc2c1cnn2-c1ncc(C(F)(F)F)cc1Cl [Example 44] | (I) logP = 2.84^a) | – |
| Cc1nc2c(cnn2-c2ccc(C(F)(F)F)cc2Cl)c(=O)n1C [Example 81] | (I) logP = 2.30^a) | – |

From patent publication US20050209251A1, “Substituted pyrazolo-pyrimidine-4-ones” (priority 2002, published 2005)
